The IC50 is the concentration that inhibits the measured activity by half. For orientation: AUC means concentration integrated over time. Higher therefore signals high exposure. A word on the Cmax: it is the highest concentration seen after dosing. A word on the bioavailability: it is the share of a dose that reaches the circulation, judged against a reference dose that is usually intravenous. A lower bioavailability goes with little systemic uptake.

The record followed here is patent US20160045503A1, “FORMULATIONS CONTAINING REVERSIBLE COVALENT COMPOUNDS” (PRINCIPIA BIOPHARMA INC., priority 2012, published 2016).

In one series the target is human recombinant Btk (Homo sapiens, UniProt Q06187). Put plainly: Btk Enzymatic Activity Assay (Caliper-based kinase assay). Format: biochemical. As to conditions: human recombinant Btk 2 nM, ATP 40 uM, peptide substrate 1 uM, room temperature, 3 h.
Sequence of human recombinant Btk (Q06187 whole entry): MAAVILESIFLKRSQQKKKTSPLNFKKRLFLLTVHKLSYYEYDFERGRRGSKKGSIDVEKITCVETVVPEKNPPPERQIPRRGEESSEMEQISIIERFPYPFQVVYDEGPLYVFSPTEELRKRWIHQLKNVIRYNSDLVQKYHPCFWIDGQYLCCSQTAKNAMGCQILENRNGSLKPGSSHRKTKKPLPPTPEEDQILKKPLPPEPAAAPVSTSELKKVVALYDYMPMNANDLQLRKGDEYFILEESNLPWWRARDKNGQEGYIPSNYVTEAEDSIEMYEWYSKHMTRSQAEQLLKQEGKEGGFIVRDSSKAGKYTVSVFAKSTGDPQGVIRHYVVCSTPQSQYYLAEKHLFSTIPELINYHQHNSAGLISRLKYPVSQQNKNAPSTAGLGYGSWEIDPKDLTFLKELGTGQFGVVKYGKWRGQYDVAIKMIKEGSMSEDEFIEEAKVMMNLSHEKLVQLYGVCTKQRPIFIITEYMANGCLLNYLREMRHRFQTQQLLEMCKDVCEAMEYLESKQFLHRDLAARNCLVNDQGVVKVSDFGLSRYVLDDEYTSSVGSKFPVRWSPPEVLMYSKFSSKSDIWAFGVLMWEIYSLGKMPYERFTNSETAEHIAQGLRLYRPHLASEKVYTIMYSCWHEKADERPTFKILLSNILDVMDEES
The next series has as its system protein target. Description: Reversibility of Binding (compound in solution before and after denaturation or digestion of the target, HPLC-MS/MS). Particulars: for Compound in solution in the denatured or digested state?: after denaturation with 5 M guanidine hydrochloride and digestion with trypsin; for compound in solution following perturbation of the target: perturbed state; for Compound in solution in the native state?: target in excess over compound. On the procedure: The following approach was developed to differentiate compounds that form irreversible bonds with their targets, such as acrylamide compounds, from compound that bind reversibly. […] The reactions were then treated with perturbations including both denaturation with 5 M guanidine hydrochloride and digestion with trypsin, disrupting proper folding of the target. […] The concentration of compound in solution was assessed both preceding and following perturbation using high performance liquid chromatography (HPLC) coupled to tandem mass spectrometry.

The nature of series [1]: Determination of Bioavailability, stomach (oral gavage) v. intraduodenal administration. In kind it is in vivo, Rats. Particulars: rat; for % increase: ID versus PO; for AUC / Cmax / bioavailability: plasma. As for the experimental part:
Rats with surgically implanted intra-duodenal catheters were obtained commercially. Rats were dosed with solution or suspension of (S)-2-(2-((4-amino-3-(2-fluoro-4-phenoxyphenyl)-1H-pyrazolo[3,4-d]pyrimidin-1-yl)methyl)pyrrolidine-1-carbonyl)-4-methyl-4-morpholinopent-2-enenitrile; via bolus injection: oral gavage was done to measure exposure after oral dosing, or dosing via administration through the intra-duodenal catheter to measure exposure bypassing the stomach. […] Blood was withdrawn at time points out to 24 hours and compound quantitated via LC/MS/MS to obtain plasma concentrations. PK parameters were calculated via commercially available software and measures of exposure were used to assess differences in dosing routes. The table below summarizes exposures as measured by area under the curve (AUC), concentration at its maximum (Cmax), and bioavailability.

Setting [2] is: 20 mg/kg, ID (intra-duodenal), 20 mg/kg in 15% cyclodextrin, Experiment 1.
Setting [3] is: 20 mg/kg, ID (intra-duodenal), 20 mg/kg in 15% cyclodextrin, Experiment 2.
Where [4] appears, read: 100 mg/kg, ID 100 mg/kg, 0.5% xanthum gum suspension.
[5] abbreviates: po, 20 mg/kg, 20 mg/kg in 15% cyclodextrin, Experiment 1.
Where [6] appears, read: po, 20 mg/kg, 20 mg/kg in 15% cyclodextrin, Experiment 2.
Where [7] appears, read: po, 100 mg/kg, PO 100 mg/kg, 0.5% xanthum gum suspension.

Experimental for human recombinant Btk: A Caliper-based kinase assay (Caliper Life Sciences, Hopkinton, Mass.) was used to measure inhibition of Btk kinase activity of a compound of Formula (I). […] The reaction was then terminated with EDTA, final concentration 20 mM and the phosphorylated reaction product was quantified on a Caliper Desktop Profiler (Caliper LabChip 3000). […] This value is presented as the IC50.

Take `N#CC(=CC1CC1)C(=O)N1CCCC1Cn1nc(-c2ccc(Oc3ccccc3)cc2)c2c(N)ncnc21` (stereo not shown) [Cpd 2, 2-(2-((4-amino-3-(4-phenoxyphenyl)-1H-pyrazolo[3,4-d]pyrimidin-1-yl)methyl)pyrrolidine-1-carbonyl)-3-cyclopropylacrylonitrile]: the IC50 at human recombinant Btk was determined as 3.7 nM.
Turning to `COc1cc(-c2nn(CC3CCCN3C(=O)C(C#N)=CC3CC3)c3ncnc(N)c23)ccc1Oc1ccc(Cl)c(Cl)c1` (stereo not shown) [Cpd 5], the concentration for half-maximal inhibition (IC50) on human recombinant Btk is 1 nM.
The same measure, in the same setting: the figure for `CC(C)(C)C=C(C#N)C(=O)N1CCC(n2nc(-c3ccc(Oc4ccccc4)cc3)c3c(N)ncnc32)CC1` [Cpd 8, 2-(4-(4-amino-3-(4-phenoxyphenyl)-1H-pyrazolo[3,4-d]pyrimidin-1-yl)piperidine-1-carbonyl)-4,4-dimethylpent-2-enenitrile] is 130 nM; for `CC(C)(C)C=C(C#N)C(=O)N1CCCC1Cn1nc(-c2ccc(Oc3ccccc3)cc2)c2c(N)ncnc21` (stereo not shown) [Cpd 10, 2-(2-((4-amino-3-(4-phenoxyphenyl)-1H-pyrazolo[3,4-d]pyrimidin-1-yl)methyl)pyrrolidine-1-carbonyl)-4,4-dimethylpent-2-enenitrile] it is 5.4 nM.
With `N#CC(=CC1CC1)C(=O)N1CCC[C@@H]1Cn1nc(-c2ccc(Oc3ccccc3)cc2F)c2c(N)ncnc21` [Cpd 27A, (R)-2-(2-((4-amino-3-(2-fluoro-4-phenoxyphenyl)-1H-pyrazolo[3,4-d]pyrimidin-1-yl)methyl)pyrrolidine-1-carbonyl)-3-cyclopropylacrylonitrile], in the series with protein target, the “Compound in solution in the denatured or digested state?” value is “yes” and the “compound in solution following perturbation of the target” value is listed as “returned to solution”. Further, the “Compound in solution in the native state?” value in the series on protein target (before perturbation) was “no”.
Turning to `N#CC(=CC1CC1)C(=O)N1CCC[C@H]1Cn1nc(-c2ccc(Oc3c(F)cccc3F)cc2F)c2c(N)ncnc21` [Cpd 44B, (S)-2-(2-((4-amino-3-(2-fluoro-4-(2,6-difluorophenoxy)phenyl)-1H-pyrazolo[3,4-d]pyrimidin-1-yl)methyl)pyrrolidine-1-carbonyl)-3-cyclopropylacylonitrile], the IC50 at human recombinant Btk was determined as 3 nM.
The same measure, in the same setting: the figure for `CNC(C)(C)C=C(C#N)C(=O)N1CCC[C@@H]1Cn1nc(C2(Oc3ccccc3)C=CC=CC2F)c2c(N)ncnc21` (stereo partly drawn) [Cpd 83A, (R)-2-(2-((4-amino-3-(2-fluoro-1-phenoxyphenyl)-1H-pyrazolo[3,4-d]pyrimidin-1-yl)methyl)pyrrolidine-1-carbonyl)-4-methyl-4-(methylamino)pent-2-enenitrile] is 1.4 nM; for `N#CC(=CC1(N)CC1)C(=O)N1CCC[C@@H]1Cn1nc(-c2ccc(Oc3ccccc3)cc2F)c2c(N)ncnc21` [Cpd 90A, (R)-2-(2-((4-amino-3-(2-fluoro-4-phenoxyphenyl)-1H-pyrazolo[3,4-d]pyrimidin-1-yl)methyl)pyrrolidine-1-carbonyl)-3-(1-aminocyclopropyl)acrylonitrile] it is 52 nM.
For the compound `CC(C)(C=C(C#N)C(=O)N1CCC[C@H]1Cn1nc(-c2ccc(Oc3ccccc3)cc2F)c2c(N)ncnc21)N1CCOCC1` [Cpd 95B, (S)-2-(2-((4-amino-3-(2-fluoro-4-phenoxyphenyl)-1H-pyrazolo[3,4-d]pyrimidin-1-yl)methyl)pyrrolidine-1-carbonyl)-4-methyl-4-morpholinopent-2-enenitrile], the “% increase” value in series [1] (20 mg/kg in 15% cyclodextrin, Experiment 1) is listed as 409%; in series [1] (20 mg/kg in 15% cyclodextrin, Experiment 2), 232%; in series [1] (100 mg/kg, 0.5% xanthum gum suspension) it was 220%. The AUC in series [1] (setting [2]) was 630 ng·h/mL; in series [1] (setting [3]), 1500 ng·h/mL; in series [1] (setting [4]), 1900 ng·h/mL; in series [1] (setting [5]), 154 ng·h/mL; in series [1] (setting [6]), 647 ng·h/mL; in series [1] (setting [7]), 858 ng·h/mL. The Cmax in series [1] (setting [2]) is 1400 ng/mL; in series [1] (setting [3]), 1650 ng/mL; in series [1] (setting [4]), 870 ng/mL; in series [1] (setting [5]), 145 ng/mL; in series [1] (setting [6]), 406 ng/mL; in series [1] (setting [7]) it was 149 ng/mL. In addition, the bioavailability in series [1] (setting [2]) amounted to 27%; in series [1] (setting [3]) it was 64.6%; in series [1] (setting [4]), 16.3%; in series [1] (setting [5]) it was 6.6%; in series [1] (setting [6]), 27.8%; in series [1] (setting [7]), 7.4%.
Turning to `CC(C)C=C(C#N)C(=O)N1CCC[C@H]1Cn1nc(-c2ccc(Oc3cccc(F)c3F)cc2F)c2c(N)ncnc21` [Cpd 102B, (S)-2-(2-((4-amino-3-(4-(2,3-difluorophenoxy)-2-fluorophenyl)-1H-pyrazolo[3,4-d]pyrimidin-1-yl)methyl)pyrrolidine-1-carbonyl)-4-methylpent-2-enenitrile], the IC50 on human recombinant Btk stood at 6 nM.
Still for that read-out and setting: the figure for `CNC(C)(C)C=C(C#N)C(=O)N1CCC[C@H]1Cn1nc(-c2ccc(Oc3cccc(F)c3F)cc2F)c2c(N)ncnc21` [Cpd 105B] is 25.5 nM; for `CC(C)(C)C=C(C#N)C(=O)N1CCC[C@H]1Cn1cc(-c2ccc(Oc3cccc(F)c3F)cc2)c2c(N)ncnc21` [Cpd 173B, (S)-2-(2-((4-amino-5-(4-(2,3-difluorophenoxy)phenyl)-7H-pyrrolo[2,3-d]pyrimidin-7-yl)methyl)pyrrolidine-1-carbonyl)-4,4-dimethylpent-2-enenitrile] it is 34 nM.
On to `C[C@@H](Cn1nc(-c2ccc(Oc3ccccc3)cc2F)c2c(N)ncnc21)NC(=O)C(C#N)=CC(C)(C)N` [Cpd 195, (S)-4-amino-N-(1-(4-amino-3-(2-fluoro-4-phenoxyphenyl)-1H-pyrazolo[3,4-d]-pyrimidin-1-yl)propan-2-yl)-2-cyano-4-methylpent-2-enamide], for which the IC50 at human recombinant Btk is 6 nM.
Regarding `C=CC(=O)N1CCC[C@@H](n2nc(-c3ccc(Oc4ccccc4)cc3)c3c(N)ncnc32)C1` [reference compound], in the series on protein target, the “Compound in solution in the denatured or digested state?” value is recorded as “no” and the “compound in solution following perturbation of the target” value was “depleted from solution”. Also, in the series on protein target (before perturbation), the “depletion of compound from solution in the native (folded) state” value was “depleted from solution” and the “Compound in solution in the native state?” value is listed as “no”.
Turning to “(S)-4-amino-2-(2-((4-amino-3-(4-(2,3-difluorophenoxy)-2-fluorophenyl)-1H-pyrazolo[3,4-d]pyrimidin-1-yl)methyl)pyrimidine-1-carbonyl)-4-methylpent-2-enenitrile [Cpd 104B]”, at human recombinant Btk, the IC50 is 20 nM.
